This is an account of results in PubChem BioAssay AID1259407 (Chemical Carcinogenesis Research Information System (CCRIS), 2018).

Calls of active or inactive are those of the source. No rule for the calls is given here.

This data set concerns CCRIS mutagenicity, Ames/micronucleus/aberration tests. In words: CCRIS mutagenicity studies.
[1] abbreviates: Test System: AMES SALMONELLA TYPHIMURIUM, Strain/Indicator: TA98, Metabolic Activation: NONE, Method: PREINCUBATION
[2] abbreviates: Test System: AMES SALMONELLA TYPHIMURIUM, Strain/Indicator: TA1537, Metabolic Activation: NONE, Method: PREINCUBATION
Setting [3] is: Test System: AMES SALMONELLA TYPHIMURIUM, Strain/Indicator: TA1538, Metabolic Activation: NONE, Method: PREINCUBATION
Where [4] appears, read: Test System: AMES SALMONELLA TYPHIMURIUM, Strain/Indicator: TA98, Metabolic Activation: NONE, Method: STANDARD PLATE.
Where [5] appears, read: Test System: AMES SALMONELLA TYPHIMURIUM, Strain/Indicator: TA98, Metabolic Activation: RAT, LIVER, S-9, AROCLOR 1254, Method: STANDARD PLATE.
The mark [6] stands for this setting: Test System: AMES SALMONELLA TYPHIMURIUM, Strain/Indicator: TA100, Metabolic Activation: NONE, Method: STANDARD PLATE.
Where [7] appears, read: Test System: AMES SALMONELLA TYPHIMURIUM, Strain/Indicator: TA100, Metabolic Activation: RAT, LIVER, S-9, AROCLOR 1254, Method: STANDARD PLATE.
[8] abbreviates: Test System: AMES SALMONELLA TYPHIMURIUM, Strain/Indicator: TA1535, Metabolic Activation: NONE, Method: STANDARD PLATE.
The mark [9] stands for this setting: Test System: AMES SALMONELLA TYPHIMURIUM, Strain/Indicator: TA1535, Metabolic Activation: RAT, LIVER, S-9, AROCLOR 1254, Method: STANDARD PLATE.
[10] abbreviates: Test System: AMES SALMONELLA TYPHIMURIUM, Strain/Indicator: TA1537, Metabolic Activation: NONE, Method: STANDARD PLATE.
[11] abbreviates: Test System: AMES SALMONELLA TYPHIMURIUM, Strain/Indicator: TA1537, Metabolic Activation: RAT, LIVER, S-9, AROCLOR 1254, Method: STANDARD PLATE.
[12] abbreviates: Test System: AMES SALMONELLA TYPHIMURIUM, Strain/Indicator: TA100, Metabolic Activation: NONE, Method: PREINCUBATION

In the case of `O.O.O.O.O.[Cd+2].[Cd+2].[Cl-].[Cl-].[Cl-].[Cl-]`, the mutagenic call is “inactive; negative” (End Point: In vivo micronucleus, Test System: Bone marrow polychromatic erythrocytes, Species: Mouse, Strain/Sex: C57BL/6J/Han/Male, Route: Oral); “inactive; negative” under setting [1]; “inactive; negative” (Test System: AMES SALMONELLA TYPHIMURIUM, Strain/Indicator: TA98, Metabolic Activation: RAT LIVER S-9, PHENOBARBITAL AND BETA-NAPHTHOFLAVONE, Method: PREINCUBATION); “inactive; negative” (Test System: AMES SALMONELLA TYPHIMURIUM, Strain/Indicator: TA100, Metabolic Activation: RAT LIVER S-9, PHENOBARBITAL AND BETA-NAPHTHOFLAVONE, Method: PREINCUBATION); “inactive; negative” (Test System: AMES SALMONELLA TYPHIMURIUM, Strain/Indicator: TA1535, Metabolic Activation: RAT LIVER S-9, PHENOBARBITAL AND BETA-NAPHTHOFLAVONE, Method: PREINCUBATION); “inactive; negative” under setting [2]. For the same compound, the mutagenic call is “inactive; negative” (Test System: AMES SALMONELLA TYPHIMURIUM, Strain/Indicator: TA1537, Metabolic Activation: RAT LIVER S-9, PHENOBARBITAL AND BETA-NAPHTHOFLAVONE, Method: PREINCUBATION); “inactive; negative” under setting [3]; “inactive; negative” (Test System: AMES SALMONELLA TYPHIMURIUM, Strain/Indicator: TA1538, Metabolic Activation: RAT LIVER S-9, PHENOBARBITAL AND BETA-NAPHTHOFLAVONE, Method: PREINCUBATION); “inactive; negative” (Test System: E.COLI, Strain/Indicator: WP2UVRA, Metabolic Activation: NONE, Method: PREINCUBATION); “inactive; negative” (Test System: E.COLI, Strain/Indicator: WP2UVRA, Metabolic Activation: RAT LIVER S-9, PHENOBARBITAL AND BETA-NAPHTHOFLAVONE, Method: PREINCUBATION).

Consider `Cc1cc(C(O)c2ncc([N+](=O)[O-])n2C)c(O)c(C(C)(C)C)c1` (stereo unspecified), for which the mutagenic call under setting [4] is “inactive; negative”; the mutagenic call under setting [5] is “inactive; negative”; the mutagenic call under setting [6] was “inactive; negative”; the mutagenic call under setting [7] was “inactive; negative”; the mutagenic call under setting [8] is “inactive; negative”; the mutagenic call under setting [9] was “inactive; negative”. Besides, the mutagenic call is “inactive; negative” under setting [10]; “inactive; negative” under setting [11]; “inactive; negative” (Test System: AMES SALMONELLA TYPHIMURIUM, Strain/Indicator: TA1538, Metabolic Activation: NONE, Method: STANDARD PLATE); “inactive; negative” (Test System: AMES SALMONELLA TYPHIMURIUM, Strain/Indicator: TA1538, Metabolic Activation: RAT, LIVER, S-9, AROCLOR 1254, Method: STANDARD PLATE).

In the case of `CC(=O)OCN(CCCCl)N=O`, the mutagenic call reads like this: (Test System: AMES SALMONELLA TYPHIMURIUM, Strain/Indicator: TA92, Metabolic Activation: NONE, Method: STANDARD PLATE) “active; positive”; under setting [8], “active; positive”.

As to `CC(=O)OC[C@]12CCC(C)=C[C@H]1O[C@@H]1[C@H](O)[C@@H](OC(C)=O)[C@@]2(C)[C@]12CO2`, the mutagenic call by setting is: (Test System: AMES SALMONELLA TYPHIMURIUM, Strain/Indicator: TA98, Metabolic Activation: RAT, LIVER, MICROSOMES, PHENOBARBITAL, Method: STANDARD PLATE) “inactive; negative”; under setting [6], “inactive; negative”; (Test System: AMES SALMONELLA TYPHIMURIUM, Strain/Indicator: TA100, Metabolic Activation: RAT, LIVER, MICROSOMES, PHENOBARBITAL, Method: STANDARD PLATE) “inactive; negative”.

In the case of `CCN(CC)c1ccc(N=Nc2ccc([N+](=O)[O-])cc2C#N)cc1`, the mutagenic call was “active; positive” under setting [4]; “active; positive” under setting [5]; “active; positive” under setting [6]; “active; positive” under setting [7]; “inactive; negative” under setting [8]; “inactive; negative” under setting [9]. In addition, the mutagenic call is, setting by setting: under setting [10], “active; positive”; under setting [11], “active; positive”; (Test System: CHINESE HAMSTER OVARY, Strain/Indicator: CHO (HGPRT)/6-THIOGUANINE, Metabolic Activation: NONE) “inactive; negative”; (Test System: CHINESE HAMSTER OVARY, Strain/Indicator: CHO (HGPRT)/6-THIOGUANINE, Metabolic Activation: RAT, LIVER, S-9, AROCLOR 1254) “inactive; negative”; (Test System: UDS RAT HEPATOCYTES, Strain/Indicator: THY INCORP, Metabolic Activation: NONE, Method: AUTORADIOGRAPHY) “inactive; negative”.

As to `NC(N)=O`, the mutagenic call was “inactive; negative” under setting [1]; “inactive; negative” (Test System: AMES SALMONELLA TYPHIMURIUM, Strain/Indicator: TA98, Metabolic Activation: RAT, LIVER, S-9, KC 500, Method: PREINCUBATION); “inactive; negative” under setting [12]; “inactive; negative” (Test System: AMES SALMONELLA TYPHIMURIUM, Strain/Indicator: TA100, Metabolic Activation: RAT, LIVER, S-9, KC 500, Method: PREINCUBATION); “inactive; negative” (Test System: AMES SALMONELLA TYPHIMURIUM, Strain/Indicator: TA1535, Metabolic Activation: NONE, Method: PREINCUBATION); “inactive; negative” (Test System: AMES SALMONELLA TYPHIMURIUM, Strain/Indicator: TA1535, Metabolic Activation: RAT, LIVER, S-9, KC 500, Method: PREINCUBATION). Further, the mutagenic call reads like this: under setting [2], “inactive; negative”; (Test System: AMES SALMONELLA TYPHIMURIUM, Strain/Indicator: TA1537, Metabolic Activation: RAT, LIVER, S-9, KC 500, Method: PREINCUBATION) “inactive; negative”; under setting [3], “inactive; negative”; (Test System: AMES SALMONELLA TYPHIMURIUM, Strain/Indicator: TA1538, Metabolic Activation: RAT, LIVER, S-9, KC 500, Method: PREINCUBATION) “inactive; negative”; (Test System: E. COLI, Strain/Indicator: WP2 UVRA, Metabolic Activation: NONE, Method: PREINCUBATION) “inactive; negative”; (Test System: E. COLI, Strain/Indicator: WP2 UVRA, Metabolic Activation: RAT, LIVER, S-9, KC 500, Method: PREINCUBATION) “inactive; negative”. The mutagenic call (Test System: MOUSE LYMPHOMA, Strain/Indicator: L5178Y (TK+/TK-), Metabolic Activation: NONE, Method: SUSPENSION/PLATE) is “active; positive”.

Take `Cc1cc2ccccc2c2ccc3c(c12)[C@H]1O[C@H]1[C@@H](O)[C@H]3O`: under setting [12], the mutagenic call was “active; positive”.

For the compound `Clc1cccc(Cl)n1`, the mutagenic call runs as follows: (Test System: AMES SALMONELLA TYPHIMURIUM, Strain/Indicator: TA97, Metabolic Activation: NONE, Method: STANDARD PLATE) “inactive; negative”; under setting [4], “inactive; negative”; under setting [5], “inactive; negative”; under setting [6], “inactive; negative”; under setting [7], “inactive; negative”; (Test System: AMES SALMONELLA TYPHIMURIUM, Strain/Indicator: TA102, Metabolic Activation: NONE, Method: STANDARD PLATE) “inactive; negative”. In addition, the mutagenic call (Test System: AMES SALMONELLA TYPHIMURIUM, Strain/Indicator: TA102, Metabolic Activation: RAT, LIVER, S-9, AROCLOR 1254, Method: STANDARD PLATE) is “inactive; negative”.

For the compound `OCNc1ncnc2c1ncn2[C@@H]1O[C@H](CO)[C@@H](O)[C@H]1O`, the mutagenic call by setting is: (Test System: AMES SALMONELLA TYPHIMURIUM, Strain/Indicator: TA100(TN5-1,8-DNP1011), Metabolic Activation: NONE, Method: STANDARD PLATE) “inactive; negative”; (Test System: AMES SALMONELLA TYPHIMURIUM, Strain/Indicator: TA100(TN5-1,8-DNP1012), Metabolic Activation: NONE, Method: STANDARD PLATE) “active; positive”; under setting [6], “inactive; negative”.
